Among the test systems are MALME-3M melanoma; UACC-257 melanoma; BT-549 breast; NCI-H460 lung; NCI-H226 lung; MDA-MB-231 breast; HOP-92 NSCLC; MOLT-4 leukemia; HT29 colon; MCF7 breast.
What all share (experiment): NCI tumour cell line growth inhibition, 48 h

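Values below derive from 48-hour exposures of cells grown in 96-well plates, with endpoints linearly interpolated between the two concentrations bracketing the appropriate inhibition level. Here, GI50 denotes the concentration required for 50% inhibition of growth. At the TGI there is no net growth.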 Bounds are passed on as bounds.

Turning to `COc1ccc2c(c1)C(=O)c1c-2c(Nc2ccccc2OC)nc2ccccc12`, the GI50 in the test with MALME-3M melanoma is greater than 100000 nM; in the test with UACC-257 melanoma, greater than 100 µM; with BT-549 breast, greater than 100000 nM; in the test with NCI-H460 lung, greater than 100000 nM; in the test with NCI-H226 lung, greater than 100000 nM; in the test on MDA-MB-231 breast it was greater than 100000 nM. Moreover, the GI50 with HOP-92 NSCLC is 26.4 µM; with MOLT-4 leukemia it was greater than 100000 nM; in the test on HT29 colon it was greater than 100000 nM; in the test on MCF7 breast, greater than 100000 nM. For the same compound, the TGI in the test on MALME-3M melanoma, in the test on UACC-257 melanoma, in the test with BT-549 breast, in the test with NCI-H460 lung, with NCI-H226 lung and in the test with MDA-MB-231 breast was greater than 100 µM in each case. For the same compound, the TGI in the test on HOP-92 NSCLC, in the test on MOLT-4 leukemia, in the test on HT29 colon and in the test with MCF7 breast was greater than 100 µM each time.
`Nc1nc2c(c3cnccc13)C(c1ccc(Cl)c(Cl)c1)Cc1cnccc1-2` (centres undefined): the GI50 was 915 nM in the test with MALME-3M melanoma; 14.8 µM in the test on UACC-257 melanoma; 570 nM in the test on BT-549 breast; 428 nM in the test with NCI-H460 lung; 1230 nM in the test on NCI-H226 lung; 937 nM with MDA-MB-231 breast. Also, the GI50 was 1.88 µM in the test with HOP-92 NSCLC, 480 nM in the test with MOLT-4 leukemia, 370 nM in the test with HT29 colon and 305 nM in the test on MCF7 breast. Also, the TGI with MALME-3M melanoma was determined as 18.6 µM; in the test with UACC-257 melanoma, 29.1 µM; with BT-549 breast, 7.3 µM; with NCI-H460 lung, 3.99 µM; in the test with NCI-H226 lung, 3.94 µM; with MDA-MB-231 breast, 14.8 µM. For the same compound, the TGI in the test on HOP-92 NSCLC stood at 14.5 µM; with MOLT-4 leukemia, 5.48 µM; in the test on HT29 colon, 3.31 µM; in the test on MCF7 breast, 11.7 µM.
Turning to `CN[C@@H](C)C(=O)N[C@H]1CN(S(=O)(=O)c2cccc(S(=O)(=O)N3CC[C@H]4CC[C@@H](C(=O)NC(c5ccccc5)c5ccccc5)N4C(=O)[C@@H](NC(=O)[C@H](C)NC)C3)c2)CC[C@H]2CC[C@@H](C(=O)NC(c3ccccc3)c3ccccc3)N2C1=O`, the GI50 in the test with MALME-3M melanoma is less than 10.4 nM; in the test with UACC-257 melanoma it was 18 µM; in the test on BT-549 breast it was less than 10 nM; with NCI-H460 lung, 20200 nM; in the test on NCI-H226 lung, 28900 nM; in the test on MDA-MB-231 breast it was less than 15.7 nM. The GI50 with HOP-92 NSCLC is 7.71 µM; in the test with MOLT-4 leukemia it was 47000 nM; in the test on HT29 colon, 20700 nM; in the test on MCF7 breast, 6930 nM. Besides, the TGI was 0.0452 µM with MALME-3M melanoma; 50.2 µM in the test with UACC-257 melanoma; less than 0.0197 µM in the test on BT-549 breast; 46.3 µM with NCI-H460 lung; greater than 100 µM in the test with NCI-H226 lung; 27.4 µM in the test on HOP-92 NSCLC. Besides, the TGI was greater than 100 µM in the test on MOLT-4 leukemia, greater than 48.3 µM in the test on HT29 colon and 29.2 µM with MCF7 breast.
For the compound `CC1(C)N=C(N)N=C(N)N1c1ccc(CCC(=O)Nc2ccc(S(=O)(=O)F)cc2)cc1`, the GI50 was 10900 nM in the test on MALME-3M melanoma; 15.5 µM in the test on UACC-257 melanoma; 12600 nM with BT-549 breast; 253 nM with NCI-H460 lung; 7350 nM in the test with NCI-H226 lung; 23100 nM with MDA-MB-231 breast. Also, the GI50 was 5.31 µM in the test on HOP-92 NSCLC, 4620 nM in the test with MOLT-4 leukemia, 362 nM in the test on HT29 colon and 1800 nM with MCF7 breast. For the same compound, the TGI in the test on MALME-3M melanoma, in the test with UACC-257 melanoma, in the test with BT-549 breast, in the test on NCI-H460 lung, with NCI-H226 lung and in the test with MDA-MB-231 breast was greater than 100 µM throughout. Further, the TGI in the test on HOP-92 NSCLC, in the test on MOLT-4 leukemia, with HT29 colon and in the test on MCF7 breast was greater than 100 µM throughout.
Consider `CC(Br)C(=O)NC(CO)C(=O)O` (centres undefined), for which the TGI with MALME-3M melanoma, in the test on UACC-257 melanoma, with BT-549 breast, in the test on NCI-H460 lung, in the test with NCI-H226 lung and in the test with MDA-MB-231 breast was greater than 100 µM in each case. In addition, the TGI in the test with HOP-92 NSCLC, with MOLT-4 leukemia, with HT29 colon and with MCF7 breast was greater than 100 µM each time.
On to `CCN=c1sc2c(n1NC(=O)c1cc3ccc1CCc1ccc(cc1)CC3)C(=O)c1ccccc1C2=O`, for which the GI50 in the test on MALME-3M melanoma was 524 nM; with UACC-257 melanoma it was 0.551 µM; with BT-549 breast it was 511 nM; with NCI-H460 lung, 1310 nM; in the test with NCI-H226 lung, 2210 nM; with MDA-MB-231 breast, 658 nM. The GI50 with HOP-92 NSCLC was 0.772 µM; with MOLT-4 leukemia, 634 nM; in the test on HT29 colon, 1400 nM; with MCF7 breast, 592 nM. The TGI in the test on MALME-3M melanoma turned out to be 0.978 µM; in the test on UACC-257 melanoma, 1.07 µM; in the test on BT-549 breast, 0.974 µM; with NCI-H460 lung it was 4.86 µM; in the test on NCI-H226 lung it was 7.33 µM; in the test with MDA-MB-231 breast, 2.72 µM. Further, the TGI in the test on HOP-92 NSCLC amounted to 2.83 µM; with MOLT-4 leukemia, 1.94 µM; in the test on HT29 colon it was 19.2 µM; in the test with MCF7 breast, 1.3 µM.
As for `CCN1C(=S)N(CC)C2C1NC(=S)N2/N=C/C=C/c1ccccc1OC` (centres undefined), the GI50 in the test on MALME-3M melanoma is 736 nM; in the test with UACC-257 melanoma, 21.8 µM; in the test on BT-549 breast, 899 nM; in the test with NCI-H460 lung, 335 nM; in the test on NCI-H226 lung, 903 nM; in the test with MDA-MB-231 breast it was 521 nM. Moreover, the GI50 is 3.56 µM in the test with HOP-92 NSCLC, 464 nM with MOLT-4 leukemia, 330 nM in the test on HT29 colon and 171 nM in the test on MCF7 breast. Besides, the TGI was 63 µM in the test on MALME-3M melanoma; greater than 100 µM in the test with UACC-257 melanoma; 8.56 µM in the test on BT-549 breast; greater than 33.4 µM in the test with NCI-H460 lung; greater than 39.3 µM in the test on NCI-H226 lung; 10.3 µM in the test on MDA-MB-231 breast. Also, the TGI with HOP-92 NSCLC is greater than 76.7 µM; with MOLT-4 leukemia, greater than 54.7 µM; in the test on HT29 colon, 14.4 µM; in the test on MCF7 breast, greater than 100 µM.

For the origin of these results see PubChem BioAssay (NCI).
